From PubChem BioAssay (NCI)
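The compound was tested at five concentrations on cells cultured in 96-well plates, with a 48-hour exposure period. Abbreviation: GI50, concentration required for 50% inhibition of growth. TGI marks complete inhibition of growth.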

Assays:
Assay in all cases: inhibition of tumour cell growth, NCI panel, 48 h
[1] = tested on: 786-0 renal
[2] = tested on: IGROV1 ovarian
[3] = tested on: MALME-3M melanoma
[4] = tested on: MOLT-4 leukemia
[5] = tested on: PC-3 prostate
[6] = tested on: SF-268 CNS
[7] = tested on: SF-295 CNS
[8] = tested on: SN12C renal
[9] = tested on: SR leukemia
[10] = tested on: SW-620 colon
[11] = tested on: UO-31 renal

Compound `NS(=O)(=O)c1ccc(NNC(=O)c2cccc3c(=O)c4ccccc4[nH]c23)cc1` has a TGI [1] greater than 100 µM, a TGI [2] greater than 100 µM and a TGI [3] greater than 100 µM. It also gave a TGI [4] greater than 100 µM, a TGI [5] greater than 100 µM and a TGI [6] greater than 100 µM. It also gave a TGI [7] greater than 100 µM, a TGI [8] greater than 100 µM and a TGI [9] greater than 100 µM. For the same compound, the TGI [10] was greater than 100 µM and the TGI [11] was greater than 100 µM.

For `C1CNCCN2CCCNCCN(C1)CC2`, the TGI [1] was greater than 100 µM, the TGI [2] was greater than 100 µM and the TGI [3] was greater than 100 µM. It also gave a TGI [4] greater than 100 µM, a TGI [5] greater than 100 µM and a TGI [6] greater than 100 µM. It also gave a TGI [7] greater than 100 µM, a TGI [8] greater than 100 µM and a TGI [9] greater than 100 µM. The TGI [10] was greater than 100 µM and the TGI [11] was greater than 100 µM.

`Clc1cc2nc(C3CCCO3)[nH]c2cc1Cl` (configuration not stated) showed a TGI [1] greater than 100 µM, a TGI [2] greater than 100 µM and a TGI [3] greater than 100 µM. The TGI [4] was greater than 100 µM, the TGI [5] was greater than 100 µM and the TGI [6] was greater than 100 µM. It also gave a TGI [7] greater than 100 µM, a TGI [8] greater than 100 µM and a TGI [9] greater than 100 µM. The TGI [10] was greater than 100 µM and the TGI [11] was 53.9 µM.

`CN(Cc1cnc2nc(N)nc(N)c2n1)c1ccc(C(=O)NC(CCS(=O)(=O)O)C(=O)O)cc1` (configuration not stated) gave a TGI [2] greater than 100 µM, a TGI [3] greater than 100 µM and a TGI [4] greater than 100 µM. The TGI [5] was greater than 100 µM, the GI50 [6] was 0.972 µM and the TGI [6] was greater than 100 µM. It also gave a TGI [7] greater than 100 µM, a TGI [8] greater than 100 µM and a TGI [9] greater than 100 µM. For the same compound, the TGI [10] was greater than 100 µM and the TGI [11] was greater than 100 µM.

`COc1ccc(-c2cc(-c3ccccc3)n(C3OC(COC(C)=O)C(OC(C)=O)C(OC(C)=O)C3OC(C)=O)c(=S)c2C#N)cc1` (configuration not stated) showed a TGI [1] of 12.4 µM, a TGI [2] of 32 µM and a TGI [3] of 23.2 µM. It also gave a TGI [4] greater than 100 µM, a TGI [5] of 32.3 µM and a TGI [6] of 58.2 µM. It also gave a TGI [7] of 17.9 µM, a TGI [9] of 37.5 µM and a TGI [10] greater than 100 µM. For the same compound, the TGI [11] was 21.3 µM.

Work on `NC(CCCCCP(=O)(O)O)C(=O)O` (configuration not stated) yielded a TGI [2] greater than 100 µM, a TGI [4] greater than 100 µM and a TGI [5] greater than 100 µM. The TGI [6] was greater than 100 µM, the TGI [7] was greater than 100 µM and the TGI [8] was greater than 100 µM. It also gave a TGI [9] greater than 100 µM, a TGI [10] greater than 100 µM and a TGI [11] greater than 100 µM.

Compound `C/C(CC(O)(C(F)(F)F)C(F)(F)F)=N\N` has a TGI [1] greater than 10 µM, a TGI [2] greater than 10 µM and a TGI [3] greater than 10 µM. The TGI [4] was greater than 10 µM, the TGI [5] was greater than 10 µM and the TGI [6] was greater than 10 µM. It also gave a TGI [7] greater than 10 µM, a TGI [8] greater than 10 µM and a TGI [10] greater than 10 µM.

With `CN(C)c1cccc(-c2cc(=O)c3ccccc3[nH]2)c1` the TGI [1] was greater than 100 µM, the TGI [2] was greater than 100 µM and the TGI [3] was greater than 100 µM. It also gave a TGI [4] greater than 100 µM, a GI50 [6] of 76.6 µM and a TGI [6] greater than 100 µM. The GI50 [7] was 28 µM, the TGI [7] was greater than 100 µM and the TGI [8] was greater than 100 µM. It also gave a TGI [9] greater than 100 µM, a TGI [10] greater than 100 µM and a TGI [11] greater than 100 µM.

`COCCc1c(C)c(C#N)c2n(C)c3ccccc3n2c1=O` gave a TGI [1] greater than 10 µM, a TGI [2] greater than 10 µM and a TGI [3] greater than 10 µM. The TGI [4] was greater than 10 µM, the TGI [5] was greater than 10 µM and the TGI [6] was greater than 10 µM. The TGI [7] was greater than 10 µM, the TGI [8] was greater than 10 µM and the TGI [9] was greater than 10 µM. It also gave a TGI [10] greater than 10 µM.

`CN(C)c1nc(N(C)C)nc(N(C)CN(C)c2ccccc2)n1` showed a TGI [2] greater than 100 µM, a TGI [3] greater than 100 µM and a TGI [4] greater than 100 µM. The TGI [6] was greater than 100 µM, the TGI [7] was greater than 100 µM and the TGI [8] was greater than 100 µM. It also gave a TGI [11] greater than 100 µM.

`COc1cc(/C=C2\C(=O)N(c3cccc(Cl)c3)C(c3ccccc3)S2(=O)=O)cc(OC)c1OC` (configuration not stated) was tested, and the TGI [1] was greater than 100 µM, the TGI [3] was greater than 100 µM and the TGI [4] was 98.8 µM. The TGI [6] was greater than 100 µM, the TGI [7] was greater than 100 µM and the TGI [8] was greater than 100 µM. For the same compound, the TGI [10] was greater than 100 µM and the TGI [11] was greater than 100 µM.

With `ON=C1CCCCC(=NO)CCCC1` the TGI [1] was greater than 100 µM, the TGI [3] was greater than 100 µM and the TGI [5] was greater than 100 µM. The TGI [6] was greater than 100 µM, the TGI [7] was greater than 100 µM and the TGI [8] was greater than 100 µM. For the same compound, the TGI [10] was greater than 100 µM and the TGI [11] was greater than 100 µM.

`C=C1C(=O)OC2/C=C(\C)CC/C=C(/C)CC(OC(=O)/C(=C/CO)CO)C12` (configuration not stated) gave a TGI [1] of 88.8 µM, a TGI [2] greater than 100 µM and a TGI [3] of 42.2 µM. It also gave a TGI [4] greater than 100 µM, a TGI [5] greater than 100 µM and a TGI [6] of 77.5 µM. The TGI [7] was greater than 100 µM, the TGI [9] was greater than 100 µM and the TGI [10] was 63.1 µM. It also gave a TGI [11] of 33.8 µM.

Compound `O=C(CSc1nc2ccc(I)cc2c(=O)n1Cc1ccccc1)N/N=C/c1ccccc1` has a TGI [1] of 32.6 µM, a TGI [2] of 36.1 µM and a TGI [4] greater than 100 µM. It also gave a TGI [5] of 28.6 µM, a TGI [6] of 32.4 µM and a TGI [7] of 30.9 µM. For the same compound, the TGI [8] was greater than 100 µM, the TGI [9] was greater than 100 µM and the TGI [10] was greater than 100 µM.

Work on `O=C(NC(=O)c1cn(CCN2CCNCC2)c(=O)[nH]c1=O)OCc1ccccc1` yielded a TGI [3] greater than 100 µM, a TGI [4] greater than 100 µM and a TGI [6] greater than 100 µM. It also gave a TGI [7] greater than 100 µM, a TGI [8] greater than 100 µM and a TGI [9] greater than 100 µM. It also gave a TGI [10] greater than 100 µM.

With `CN1CCc2c(sc3nc(Nc4ccccc4)n(N)c(=O)c23)C1` the TGI [1] was greater than 100 µM, the TGI [2] was greater than 100 µM and the TGI [4] was greater than 100 µM. It also gave a TGI [5] greater than 100 µM, a TGI [6] greater than 100 µM and a TGI [7] greater than 100 µM. The TGI [8] was greater than 100 µM and the TGI [11] was greater than 100 µM.

`CCN(CC)CCN1C(=O)c2cccc3c(-c4ccc5c(c4)ncn5C4CCCCC4)ccc(c23)C1=O` showed a GI50 [3] of 1.38 µM, a TGI [3] of 2.81 µM and a GI50 [4] of 1.1 µM. The TGI [4] was 3.88 µM, the GI50 [5] was 1.64 µM and the TGI [5] was 4.66 µM. The GI50 [7] was 1.18 µM, the TGI [7] was 2.69 µM and the GI50 [8] was 1.27 µM. The TGI [8] was 2.78 µM, the GI50 [9] was 0.414 µM and the TGI [9] was 2.06 µM. The GI50 [11] was 0.583 µM and the TGI [11] was 2.28 µM.

Work on `N#CS/C(C(Cl)=C(Cl)Cl)=C(/Cl)[N+](=O)[O-]` yielded a TGI [2] of 5.63 µM, a TGI [3] of 3.25 µM and a TGI [4] of 2.19 µM. The TGI [5] was 9.79 µM, the TGI [6] was 18.9 µM and the TGI [7] was 45.4 µM. The TGI [8] was 4.92 µM, the TGI [9] was 2.15 µM and the TGI [10] was 3.5 µM. For the same compound, the TGI [11] was 3.1 µM.

In the case of `O=C(N/N=C(/COc1cccc(Cl)c1)N=Cc1ccncc1)c1ccncc1`, the TGI [1] is reported as greater than 100 µM, the TGI [2] is reported as greater than 100 µM and the TGI [3] is reported as greater than 100 µM. The TGI [4] was greater than 100 µM, the TGI [5] was greater than 100 µM and the TGI [6] was greater than 100 µM. For the same compound, the TGI [7] was greater than 100 µM, the TGI [8] was greater than 100 µM and the TGI [10] was greater than 100 µM.

`Nn1c(CNc2ccc(-c3nnc(Nc4ccc(Cl)cc4)n3N)cc2)nnc1Nc1ccc(Cl)cc1` showed a TGI [1] greater than 100 µM, a TGI [2] greater than 100 µM and a TGI [3] greater than 100 µM. It also gave a TGI [4] greater than 100 µM, a TGI [5] greater than 100 µM and a TGI [6] greater than 100 µM. For the same compound, the TGI [7] was greater than 100 µM, the TGI [8] was greater than 100 µM and the TGI [10] was greater than 100 µM. For the same compound, the TGI [11] was greater than 100 µM.

In the case of `CCCCCCc1nn2c(-c3ccc(C)cc3)nnc2s1`, the TGI [1] is reported as greater than 100 µM, the TGI [4] is reported as greater than 100 µM and the TGI [5] is reported as greater than 100 µM. For the same compound, the TGI [6] was greater than 100 µM, the TGI [7] was greater than 100 µM and the TGI [8] was greater than 100 µM. For the same compound, the TGI [10] was greater than 100 µM and the TGI [11] was greater than 100 µM.

With `CCOC(=O)C(Cc1ccc2c(c1)CCC2)(Cc1ccc2c(c1)CCC2)C(=O)OCC` the TGI [1] was greater than 100 µM, the TGI [2] was greater than 100 µM and the TGI [3] was 89.2 µM. The TGI [4] was 78.4 µM, the TGI [5] was greater than 100 µM and the TGI [6] was greater than 100 µM. For the same compound, the TGI [7] was greater than 100 µM, the TGI [9] was 55.1 µM and the TGI [10] was greater than 100 µM. For the same compound, the TGI [11] was greater than 100 µM.
